{
  "source": "patent EP0532328A2",
  "about": "“Novel lignans, intermediates thereof and a process for preparing the intermediates” (TSUMURA & CO., priority 1991, dated 1993)",
  "key": {"[1]": {"experiment": "solubility in water / purified water", "format": "physicochemical", "method": "However, intravenous administrations are necessary to promptly produce drug effects in acute phase symptoms in hepatic lesion, etc., or to lower effective doses. An administration by intravenous drop infusion is not preferable as it causes patients physical and psychological pain. However, due to the low solubility in water (0.15 mg/ml of water), an aqueous injection faces a difficulty in maintaining an effective amount of the compound dissolved in an adequate amount of liquid for a one-time administration, because the amount of liquid per dose of the injection is limited to 10 to 20 ml. To make the amount of liquid adequate for the administration of an amount of the effective compound, a large amount of a solubilizing agent such as polyethylene glycol must be used. However, since this causes adverse effects, such as a hemolysis reaction, the amount used should be limited to a certain extent. Thus the development of a material having medicinal effects equivalent to said compounds and a proper solublity in water, as a substance for intravenous injection, has been sought.\n(§1) The thus-obtained compound V is dissolved in methanol, and a) when R4 is a methoxyl group, a dilute water solution of sodium hydroxide is added to the solution to hydrolyze it, the thus-reacted solution is washed with ethyl acetate, and the water phase is concentrated, followed by acidifying with 10 % hydrochloric acid or b) when R4 is a benzyloxyl group, hydrogen gas is added to compound V in the presence of palladium on carbon, the used palladium on carbon is removed, and the methanol is distilled off, to obtain a compound represented by the constitutional formula: [drawing 11] wherein R1 and R2 are as defined above, said compound being shown as compound VI. The thus-obtained compound VI is dissolved in a solvent such as acetone, the thus-obtained solution is reacted with a dilute water solution of sodium hydroxide, the thus-reacted solution is filtered to obtain a deposit, the thus-obtained deposit is washed with said solvent, and the thus-washed deposit is dried to obtain a novel lignan compound that is one of the present inventions and that is represented by the constitutional formula: [drawing 12] wherein R1 and R2 are as defined above and R5 is a residual group of the sodium salt of an amino acid, said compound being referred to as compound VII. In this reaction, when instead of a dilute water solution of sodium hydroxide, a dilute water solution of another pharmaceutically acceptable metal hydroxide is used, then a compound is obtained wherein R5 is, instead of the residual group of the sodium salt of amino acid, a pharmaceutically acceptable salt other than the residual group of the sodium salt of the amino acid. Said salts are, for example, a potassium salt and a calcium salt."}, "[2]": {"experiment": "solubility in a physiological salt solution", "format": "physicochemical", "method": "as §1, with “In this reaction, when instead of a dilute water solution of sodium hydroxide, a dilute water solution of another pharmaceutically acceptable metal hydroxide is used, then a compound is obtained wherein R5 is, instead of the residual group of the sodium salt of amino acid, a pharmaceutically acceptable salt other than the residual group of the sodium salt of the amino acid. Said salts are, for example, a potassium salt and a calcium salt.” left out"}, "[3]": {"details": "in words, compared with the corresponding derivative of gomisin A"}},
  "note": "Where two headings read alike, the source gives them in different places.",
  "data": [
    {"smiles": "COc1cc2c(c(OC)c1OC)-c1c(cc3c(c1OC)OCO3)C[C@H](C)[C@@](C)(OC(=O)CCC(=O)O)C2", "note": "[gomisin Asodium succinate, gomisin A sodium succinate]", "values": [
      {"measurement": "solubility in purified water", "setting": "[1]", "result": 30, "unit": "mg/2 ml"},
      {"measurement": "solubility relative to the solubility of gomisin A", "setting": "[1]; ratio to gomisin A", "result": 100, "unit": "times"}
    ]},
    {"smiles": "COc1cc2c(c(OC)c1OC)-c1c(cc3c(c1OC)OCO3)C[C@H](C)[C@@](C)(OC(=O)CCC(=O)NCC(=O)O)C2", "note": "[gomisin A glycinosodium succinate]", "values": [
      {"measurement": "solubility in a physiological salt solution", "setting": "[2]", "result": 30, "unit": "mg/10 ml"}
    ]},
    {"smiles": "COc1cc2c(c(OC)c1OC)-c1c(cc(OC)c(OC)c1OC)C[C@](C)(OC(=O)CCC(=O)O)[C@@H](C)C2", "note": "[schizandrin sodium succinate]", "values": [
      {"measurement": "solubility in purified water", "setting": "[1]; [3]", "result": "quite equivalent to the solubility of each corresponding derivative of gomisin A"}
    ]},
    {"smiles": "COc1cc2c(c(OC)c1OC)-c1c(cc(OC)c(OC)c1OC)C[C@](C)(OC(=O)CCC(=O)NCC(=O)O)[C@@H](C)C2", "note": "[schizandrin glycinosodium succinate]", "values": [
      {"measurement": "solubility in a physiological salt solution", "setting": "[2]; [3]", "result": "quite equivalent to the solubility of each corresponding derivative of gomisin A"},
      {"measurement": "solubility in purified water", "setting": "[1]; [3]", "result": "quite equivalent to the solubility of each corresponding derivative of gomisin A"}
    ]}
  ]
}
